Source: patent US9662371B2, “Treatment of autism and similar disorders” (Neuropharmacology Services, LLC, priority 2002, dated 2017)

How the values were obtained:
[1] = tested on: adult patients diagnosed with autism or Asperger's disorder; experiment: Oxytocin vs placebo 4-hour intravenous infusion challenge, rating of six repetitive behaviors; assay type: in vivo, human
Description: To evaluate the role of oxytocin in treating autism spectrum disorders, fifteen adult patients (mean age=32.9 years, range=19.4-55.6) (14 male, 1 female) diagnosed with autism (N=6) or Asperger's disorder (N=9) received oxytocin and placebo challenges during visits separated by 2-3 weeks to the General Clinical Research Center of the Department of Psychiatry, Seaver Autism Research Center at the Mount Sinai School of Medicine (New York, N.Y.).
Patients and their guardians signed written informed consent agreements, and the study was carried out in accordance with the Declaration of Helsinki as adopted and promulgated by the National Institutes of Health. All patents were medically healthy, without a current or past history of schizophrenia, psychotic disorders, substance abuse, other Axis I mental disorders, or seizure disorders. Patients were of average intelligence, with a mean IQ (±SD) of 90.33 (±9.90) (range=74-110). Nine patients were medication free for greater than one year prior to the study; three patents were medication free for greater than six weeks prior to the study (one was previously on fluoxetine, one on sertraline and one on bupropion); and the remaining three patents were medication free for a minimum of two weeks prior to and throughout the study (one was previously on fluvoxamine and risperidone, one on sertraline and one on clonazepam).
Each individual subject underwent two identical challenge days in which they received a continuous infusion over 4 hours of synthetic oxytocin (Pitocin®) or placebo.
(§1) All subjects were admitted into the General Clinical Research Center on the evening prior to each challenge. Following an overnight fast, the subject was awakened at 8:00 AM and an indwelling intravenous catheter inserted. At 8:30 AM vital signs were taken, and these continued to be monitored every half-hour. At 9:00 AM, 6 cc of blood were drawn and the oxytocin/placebo infusion was administered in a randomized double-blind fashion. The initial vial of Pitocin® (10 u/mL) combined aseptically with a 1.0 L bag of normal saline was first given at a rate of 10 mL/hr which is equivalent to a dose rate of 0.1 units/hour. The infusion was initiated at a low rate to minimize potential side effects, and the rate gradually titrated up. Specifically, the dose rate was titrated every 15 minutes by 25 mL/hour in the first hour, 50 mL/hour in the second hour, 100 mL/hour in the third hour, and held constant at the maximum rate of 700 mL/hr during the fourth hour. This created a range of dosing from 0.1 U/hour to 7 U/hour. See below:
The combined solution, rotated in an infusion bottle to insure thorough mixing, was added to the system by a constant infusion pump to accurately control the rate of infusion.
(§2) Staff members were given specific instructions to discontinue increasing the rate of infusion if the patient experienced significant side effects. In order to assess possible cardiovascular effects, blood pressure and pulse were recorded every half hour. Oral temperature was recorded every hour. All fifteen subjects returned in 2-3 weeks for an identical challenge administered with the other infusion substance.
Severity of repetitive autistic behaviors was evaluated using a method developed during past research with the autistic population. Six behaviors were assessed: need to know, repeating, ordering, need to tell/ask, self-injury, and touching. The ratings were completed at baseline (O), 60, 120, 180, and 240 minutes and reported. The frequency of each of the six repetitive behaviors was recorded using a four point ordinal scale with the following values: 0=never, 1=rarely, 2=sometimes, 3=constantly. These ratings were done following a 15 to 20 minute interview during which several other measures were administered and the rater had the opportunity to observe the patient's behavior in this domain. […]

[2] = tested on: adult patients diagnosed with autism or Asperger's disorder; experiment: Side effects and vital signs (blood pressure, pulse, oral temperature) during the oxytocin infusion challenge; assay type: in vivo, human
Experimental: as §1, §2
A repeated measure analysis of variance (ANOVA) was conducted looking at the two infusions (oxytocin vs. placebo) over time (0, 60, 120, 180 and 240 minutes). A logarithmic transformation was done for the repetitive behavior ratings because the data were not normally distributed. Baseline differences on the oxytocin vs. placebo days were examined using paired sample t-tests. Differences in response between patients with autism and patients with Asperger's disorder were examined using independent sample t-tests. […]

[3] = baseline (0) to endpoint (240 minutes), 15 patients, FIG. 2

CC[C@H](C)[C@@H]1NC(=O)[C@H](Cc2ccc(O)cc2)NC(=O)[C@@H](N)CSSC[C@@H](C(=O)N2CCC[C@H]2C(=O)N[C@@H](CC(C)C)C(=O)NCC(N)=O)NC(=O)[C@H](CC(N)=O)NC(=O)[C@H](CCC(N)=O)NC1=O [oxytocin]
individual dimensions of repetitive behavior, oxytocin versus placebo infusions over time ([1]; ANOVA of individual items, at p<0.05): no significant differences | main effect for drug on repetitive behaviors ([1]; ANOVA, F=1.835, df=1, 13, p=0.199): no significant main effect | total number of repetitive behaviors observed following administration ([1]; autistic study group, FIG. 1 (dashed line)): appears to decrease | patients with an increase in repetitive behaviors [1, 3]: 1 patient | patients with no change in repetitive behaviors [1, 3]: 1 patient | response of patients with autism versus patients with Asperger's disorder following oxytocin infusion ([1]; independent sample t-test, t=0.687, df=13, p=0.504): did not differ | number of different types of repetitive behavior at endpoint ([1]; individuals who responded to oxytocin, endpoint (240 minutes)): none or one | reduction in repetitive behaviors over time following oxytocin compared to placebo ([1]; repeated measures ANOVA, 0-240 min, drug×time interaction F=3.487, df=4, 52, p=0.027, FIG. 1): significantly greater reduction | touching behavior, oxytocin versus placebo over time ([1]; time×drug interaction F=2.444, df=4, 52, p=0.093 (p<0.10)): directional difference | repeating behavior, oxytocin versus placebo over time ([1]; time×drug interaction F=2.70, df=4, 52, p=0.086 (p<0.10)): directional difference | effects of infusion on blood pressure, pulse, or temperature ([2]; 4-hour infusion, 0.1 U/hour to 7 U/hour): no significant effects | side effects ([2]; 4-hour infusion, drowsiness, anxiety, depression, headache, tingling, backache, trembling, restlessness, stomach cramps, enuresis): mild | relationship between presence or number of side effects and behavioral response ([2]; chi square analysis): no relationship
